Results: ChEMBL document CHEMBL3784966, “Approaching the active conformation of 1,3-diaminopyrimidine based covalent inhibitors of Bruton's tyrosine kinase for treatment of Rheumatoid arthritis” (Bioorg Med Chem Lett, 2016)

Columns and labels:
[1] = target: Tyrosine-protein kinase BTK (Homo sapiens, UniProt Q06187); assay: Inhibition of BTK (unknown origin)
[2] = Antiproliferative activity against B cells (unknown origin); type: functional, cell-based; settings: B-cell
[3] = Plasma clearance in Sprague-Dawley rat at 2 mg/kg, iv; type: ADME, organism-based
[4] = Half life in Sprague-Dawley rat at 2 mg/kg, po; type: ADME, organism-based; settings: in vivo
[5] = Oral bioavailability in Sprague-Dawley rat at 2 mg/kg; type: ADME, organism-based; settings: in vivo
[6] = Cmax in Sprague-Dawley rat at 2 mg/kg, po; type: ADME, organism-based; parameters: dose 2 mg/kg, route oral; settings: in vivo
[7] = AUC(0 to t) in Sprague-Dawley rat at 2 mg/kg, po; type: ADME, organism-based; settings: in vivo
[8] = Metabolic stability in human plasma assessed as remaining compound at 1 uM after 4 hrs by LC-MS/MS analysis; type: ADME, cell-free; settings: read-out: Stability
[9] = Metabolic stability in Beagle dog plasma assessed as remaining compound at 1 uM after 4 hrs by LC-MS/MS analysis; type: ADME, cell-free, Canis lupus familiaris; settings: read-out: Stability
[10] = Metabolic stability in Sprague-Dawley rat plasma assessed as remaining compound at 1 uM after 4 hrs by LC-MS/MS analysis; type: ADME, cell-free; settings: read-out: Stability

Tyrosine-protein kinase BTK, sequence (Q06187 whole entry): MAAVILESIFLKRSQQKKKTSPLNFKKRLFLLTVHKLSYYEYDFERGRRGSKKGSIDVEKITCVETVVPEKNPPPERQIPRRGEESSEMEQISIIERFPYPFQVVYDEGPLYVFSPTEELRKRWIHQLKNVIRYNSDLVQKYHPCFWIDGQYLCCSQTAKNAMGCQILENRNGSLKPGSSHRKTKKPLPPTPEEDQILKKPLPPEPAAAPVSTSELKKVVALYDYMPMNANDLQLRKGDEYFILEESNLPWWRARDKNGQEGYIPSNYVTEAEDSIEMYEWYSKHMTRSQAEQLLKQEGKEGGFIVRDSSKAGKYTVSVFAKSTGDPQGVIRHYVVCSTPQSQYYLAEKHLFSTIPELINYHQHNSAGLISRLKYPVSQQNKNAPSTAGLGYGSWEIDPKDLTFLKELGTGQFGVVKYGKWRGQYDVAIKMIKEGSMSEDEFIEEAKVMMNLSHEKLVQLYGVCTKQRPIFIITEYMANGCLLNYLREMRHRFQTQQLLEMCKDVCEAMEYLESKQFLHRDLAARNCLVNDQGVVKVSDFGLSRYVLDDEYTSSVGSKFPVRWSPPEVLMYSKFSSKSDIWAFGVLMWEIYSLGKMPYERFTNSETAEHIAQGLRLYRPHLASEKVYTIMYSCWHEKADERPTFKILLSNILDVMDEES

C=CC(=O)Nc1cccc(-n2c(=O)n(C)c3cnc(Nc4ccc(Oc5ccnc(C(=O)NC)c5)cc4)nc32)c1
IC50 [1]: 13 nM
IC50 [2]: 13.7 nM
clearance [3]: 30 mL/min/kg
half-life [4]: 2.4 h
bioavailability [5]: 9%
Cmax [6]: 107 ng/mL
AUC(0-t) [7]: 100 ng·h/mL

C=CC(=O)Nc1cccc(-n2c(=O)n(C3CCOCC3)c3cnc(Nc4ccc(OC)nc4)nc32)c1
IC50 [1]: 318 nM

C=CC(=O)Nc1cccc(Nc2nc(Nc3ccc(OCCOC)cc3)ncc2S(C)(=O)=O)c1
IC50 [1]: 31.2 nM

C=CC(=O)Nc1cccc(-n2c(=O)n(C)c3cnc(Nc4ccc(OCCOC)cc4)nc32)c1
IC50 [1]: 4.11 nM
IC50 [2]: 6.84 nM
remaining at 4 h, 1 µM [8]: 42.2%
remaining at 4 h, 1 µM [9]: 16.2%
remaining at 4 h, 1 µM [10]: 27.5%
clearance [3]: 253 mL/min/kg
half-life [4]: 1.4 h
bioavailability [5]: 20%
Cmax [6]: 41 ng/mL
AUC(0-t) [7]: 27 ng·h/mL

C=CC(=O)Nc1cccc(-n2c(=O)n(CC3CC3)c3cnc(Nc4ccc(N5CCOCC5)cc4)nc32)c1
IC50 [1]: 31 nM
IC50 [2]: 70.6 nM
remaining at 4 h, 1 µM [8]: 40.8%
remaining at 4 h, 1 µM [9]: 93.4%
remaining at 4 h, 1 µM [10]: 80.5%

C=CC(=O)Nc1cccc(-n2c(=O)n(CCOC)c3cnc(Nc4ccc(OC)nc4)nc32)c1
IC50 [1]: 265 nM

C=CC(=O)Nc1cccc(Nc2nc(Nc3ccc(OCCOC)cc3)ncc2SC)c1
IC50 [1]: 6.6 nM
IC50 [2]: 30.6 nM

C=CC(=O)Nc1cccc(Nc2nc(Nc3ccc(N4CCOCC4)cc3)ncc2SC)c1
IC50 [1]: 1.08 nM
IC50 [2]: 64 nM

C=CC(=O)Nc1cccc(-n2c(=O)n(CC3CC3)c3cnc(Nc4ccc(OC)nc4)nc32)c1
IC50 [1]: 222 nM

C=CC(=O)Nc1cccc(-n2c(=O)n(CC3CC3)c3cnc(Nc4ccc(N(C)C)nc4)nc32)c1
IC50 [1]: 30.6 nM
IC50 [2]: 818 nM

C=CC(=O)Nc1cccc(Nc2nc(Nc3ccc(N4CCOCC4)cc3)ncc2[S+](C)[O-])c1 (racemic)
IC50 [1]: 0.903 nM
IC50 [2]: 3.55 nM

C=CC(=O)Nc1cccc(Nc2nc(Nc3ccc(OCCOC)cc3)ncc2[S+](C)[O-])c1 (racemic)
IC50 [1]: 3.76 nM
IC50 [2]: 5.85 nM
remaining at 4 h, 1 µM [8]: 86.7%
remaining at 4 h, 1 µM [9]: 94.3%
remaining at 4 h, 1 µM [10]: 90.7%
clearance [3]: 108 mL/min/kg
half-life [4]: 1.3 h
bioavailability [5]: 23%
Cmax [6]: 55 ng/mL
AUC(0-t) [7]: 73 ng·h/mL

C=CC(=O)Nc1cccc(Nc2nc(Nc3ccc(N(C)C)nc3)ncc2[S+](C)[O-])c1 (racemic)
IC50 [1]: 1.48 nM
IC50 [2]: 14.9 nM

C=CC(=O)Nc1cccc(Nc2nc(Nc3ccc(Oc4ccnc(C(=O)NC)c4)cc3)ncc2[S+](C)[O-])c1 (racemic)
IC50 [1]: 5.65 nM
IC50 [2]: 19.4 nM

C=CC(=O)Nc1cccc(Nc2nc(Nc3ccc(OCCOC)cc3)ncc2F)c1 [SPEBRUTINIB]
IC50 [2]: 3.28 nM
